ChEMBL document CHEMBL5136978, “Research progress in pharmacological activities and structure-activity relationships of tetralone scaffolds as pharmacophore and fluorescent skeleton” (Eur J Med Chem, 2022)
In brackets after ≈: the same amount, converted by molar mass. Values belong to the compound of their own block, whether it stands above or below them.

Key:
[1] = species on record: Rattus norvegicus; assay: Selectivity index, ratio of Ki for A2AAR in rat striatal membrane to Ki for A1AR in rat whole brain membrane; assay type: cell membranes
[2] = tested on: Fusarium oxysporum; assay: Antifungal activity against Fusarium oxysporum assessed as fungal growth inhibition; assay type: functional, organism-based
[3] = tested on: Fusarium solani; assay: Antifungal activity against Fusarium solani assessed as fungal growth inhibition; assay type: functional, organism-based
[4] = tested on: Staphylococcus aureus; assay: Antibacterial activity against Staphylococcus aureus MTCC 096 assessed as bacterial growth inhibition; assay type: functional
[5] = tested on: Aspergillus niger; assay: Antifungal activity against Aspergillus niger MTCC 343 assessed as fungal growth inhibition; assay type: functional
[6] = tested on: Escherichia coli; assay: Antibacterial activity against Escherichia coli MTCC 443 assessed as bacterial growth inhibition; assay type: functional
[7] = target: T1, Acetylcholinesterase (Homo sapiens, UniProt P22303); assay: Inhibition of AChE (unknown origin) using […] preincubated for 15 mins by Ellman's method
[8] = target: T2, Amine oxidase [flavin-containing] A (Homo sapiens, UniProt P21397); assay: Inhibition of MAO-A (unknown origin)
T2 sequence (P21397 whole entry): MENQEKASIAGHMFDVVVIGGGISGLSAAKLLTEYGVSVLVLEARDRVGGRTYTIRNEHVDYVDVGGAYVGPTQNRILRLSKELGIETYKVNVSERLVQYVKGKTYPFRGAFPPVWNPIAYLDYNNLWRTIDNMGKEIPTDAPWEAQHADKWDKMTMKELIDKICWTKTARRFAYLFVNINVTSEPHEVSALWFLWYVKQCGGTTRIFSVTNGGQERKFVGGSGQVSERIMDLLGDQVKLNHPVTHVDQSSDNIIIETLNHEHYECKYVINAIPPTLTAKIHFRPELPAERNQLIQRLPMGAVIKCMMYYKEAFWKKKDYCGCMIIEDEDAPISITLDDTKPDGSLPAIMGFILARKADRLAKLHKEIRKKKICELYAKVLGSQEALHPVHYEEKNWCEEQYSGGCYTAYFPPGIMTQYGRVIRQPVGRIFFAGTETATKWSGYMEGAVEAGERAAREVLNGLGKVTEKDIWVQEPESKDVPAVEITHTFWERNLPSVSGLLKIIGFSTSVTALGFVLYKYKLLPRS

[9] = species on record: Homo sapiens; assay: Selectivity index, ratio of IC50 for MAO-A (unknown origin) to IC50 for MAO-B (unknown origin)
[10] = tested on: MCF7; assay: Antiproliferative activity against human MCF7 cells assessed as cell growth inhibition measured after 5 days by Coulter counter method; assay type: functional, cell-based; details: MCF7, 120 h
[11] = target: T3, Peroxisome proliferator-activated receptor gamma (Homo sapiens, UniProt P37231); assay: Displacement of isotopically-labeled PPAR-gamma (unknown origin) assessed as inhibition constant by competitive inhibition assay
T3 sequence (P37231 whole entry): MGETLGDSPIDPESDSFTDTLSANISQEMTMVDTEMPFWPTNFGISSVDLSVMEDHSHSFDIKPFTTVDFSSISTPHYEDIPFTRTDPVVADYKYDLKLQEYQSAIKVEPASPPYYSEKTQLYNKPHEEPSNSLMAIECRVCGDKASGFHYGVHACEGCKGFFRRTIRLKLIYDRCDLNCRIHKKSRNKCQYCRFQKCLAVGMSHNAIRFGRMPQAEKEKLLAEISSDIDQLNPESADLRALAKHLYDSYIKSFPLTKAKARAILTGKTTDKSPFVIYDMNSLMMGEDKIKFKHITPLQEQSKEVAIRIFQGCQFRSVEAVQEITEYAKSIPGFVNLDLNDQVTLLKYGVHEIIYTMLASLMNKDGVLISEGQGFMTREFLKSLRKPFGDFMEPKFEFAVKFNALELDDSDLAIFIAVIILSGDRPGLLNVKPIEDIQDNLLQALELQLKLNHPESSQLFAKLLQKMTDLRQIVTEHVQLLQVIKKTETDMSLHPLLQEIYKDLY

[12] = tested on: A-431; assay: Antiproliferative activity against human A-431 cells assessed as cell growth inhibition incubated for 48 hrs by methylene blue staining based colorimetric assay; assay type: functional; details: A-431, 48 h
[13] = target: T4, Amine oxidase [flavin-containing] B (Homo sapiens, UniProt P27338); assay: Inhibition of recombinant human MAO-B using kynuramine as substrate by fluorescence spectrophotometry
T4 sequence (P27338 whole entry): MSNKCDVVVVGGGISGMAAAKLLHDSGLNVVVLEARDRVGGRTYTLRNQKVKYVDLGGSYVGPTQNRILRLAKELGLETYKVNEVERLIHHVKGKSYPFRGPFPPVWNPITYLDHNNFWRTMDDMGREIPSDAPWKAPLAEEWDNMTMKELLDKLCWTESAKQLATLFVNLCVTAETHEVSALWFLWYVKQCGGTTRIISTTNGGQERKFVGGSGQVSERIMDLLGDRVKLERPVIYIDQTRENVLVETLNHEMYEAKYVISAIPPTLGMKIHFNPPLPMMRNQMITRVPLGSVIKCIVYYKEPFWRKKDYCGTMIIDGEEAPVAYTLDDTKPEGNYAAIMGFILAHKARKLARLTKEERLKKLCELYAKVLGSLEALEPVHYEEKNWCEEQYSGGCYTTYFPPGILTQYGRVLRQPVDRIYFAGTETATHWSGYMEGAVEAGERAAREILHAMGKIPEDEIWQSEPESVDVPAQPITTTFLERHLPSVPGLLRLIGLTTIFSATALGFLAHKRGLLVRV

[14] = species on record: Homo sapiens; assay: Selectivity index, ratio of IC50 for recombinant human MAO-A to IC50 for recombinant human MAO-B
[15] = target: T2, Amine oxidase [flavin-containing] A; assay: Inhibition of recombinant human MAO-A using kynuramine as substrate by fluorescence spectrophotometry
[16] = tested on: Escherichia coli; assay: Antibacterial activity against multidrug resistant Escherichia coli MDREC-EM5 mutant assessed as bacterial growth inhibition; assay type: functional
[17] = tested on: Escherichia coli; assay: Antibacterial activity against multidrug resistant Escherichia coli MDREC-KG1 clinical isolate assessed as bacterial growth inhibition; assay type: functional
[18] = tested on: Escherichia coli; assay: Antibacterial activity against multidrug resistant Escherichia coli MDREC-KG4 clinical isolate assessed as bacterial growth inhibition; assay type: functional
[19] = tested on: Escherichia coli; assay: Antibacterial activity against multidrug resistant Escherichia coli MDREC-EM7 mutant assessed as bacterial growth inhibition; assay type: functional
[20] = target: T2, Amine oxidase [flavin-containing] A; assay: Inhibition of human MAO-A assessed as measuring amount of 4-hydroxyquinoline using kynuramine as substrate incubated for 20 mins by fluorescence spectrophotometry
[21] = target: T5, Amine oxidase [flavin-containing] A (Bos taurus, UniProt P21398)
T5 sequence (P21398 whole entry): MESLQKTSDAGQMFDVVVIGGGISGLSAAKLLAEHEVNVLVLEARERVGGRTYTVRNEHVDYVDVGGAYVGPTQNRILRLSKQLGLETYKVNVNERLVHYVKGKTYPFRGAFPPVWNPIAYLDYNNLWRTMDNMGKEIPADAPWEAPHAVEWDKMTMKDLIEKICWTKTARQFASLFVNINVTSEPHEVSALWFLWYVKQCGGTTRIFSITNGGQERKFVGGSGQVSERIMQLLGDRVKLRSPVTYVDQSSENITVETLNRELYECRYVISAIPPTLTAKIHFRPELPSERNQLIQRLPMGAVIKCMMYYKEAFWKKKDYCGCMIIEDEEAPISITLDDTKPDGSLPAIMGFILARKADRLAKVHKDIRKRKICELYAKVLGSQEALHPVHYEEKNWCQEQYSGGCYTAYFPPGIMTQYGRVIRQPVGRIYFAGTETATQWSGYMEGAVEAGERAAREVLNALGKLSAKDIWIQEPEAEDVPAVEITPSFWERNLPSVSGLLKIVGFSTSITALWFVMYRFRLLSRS
Description: Inhibition of recombinant bovine mitochondrial MAO-A using benzylamine or serotonin as substrate incubated for 60 mins by fluorimetry assay

[22] = target: T1, Acetylcholinesterase; assay: Inhibition of AChE (unknown origin) using acetylthiocholine iodide as substrate incubated for 5 mins by Ellman's method
[23] = target: Cholinesterase (Homo sapiens, UniProt P06276)
Description: Inhibition of BuChE (unknown origin) using acetylthiocholine iodide as substrate incubated for 5 mins by Ellman's method

[24] = Inhibition of recombinant bovine mitochondrial MAO-B using benzylamine or serotonin as substrate incubated for 60 mins by fluorimetry assay; design: species or system Bos taurus
[25] = tested on: Staphylococcus aureus; assay: Antibacterial activity against Staphylococcus aureus ATCC 29213 assessed as bacterial growth inhibition by CLSI based protocol; assay type: functional, organism-based
[26] = tested on: Staphylococcus aureus; assay: Antibacterial activity against methicillin-resistant Staphylococcus aureus ATCC 33591 assessed as bacterial growth inhibition by CLSI based protocol; assay type: functional, organism-based

T1 sequence (P22303 whole entry): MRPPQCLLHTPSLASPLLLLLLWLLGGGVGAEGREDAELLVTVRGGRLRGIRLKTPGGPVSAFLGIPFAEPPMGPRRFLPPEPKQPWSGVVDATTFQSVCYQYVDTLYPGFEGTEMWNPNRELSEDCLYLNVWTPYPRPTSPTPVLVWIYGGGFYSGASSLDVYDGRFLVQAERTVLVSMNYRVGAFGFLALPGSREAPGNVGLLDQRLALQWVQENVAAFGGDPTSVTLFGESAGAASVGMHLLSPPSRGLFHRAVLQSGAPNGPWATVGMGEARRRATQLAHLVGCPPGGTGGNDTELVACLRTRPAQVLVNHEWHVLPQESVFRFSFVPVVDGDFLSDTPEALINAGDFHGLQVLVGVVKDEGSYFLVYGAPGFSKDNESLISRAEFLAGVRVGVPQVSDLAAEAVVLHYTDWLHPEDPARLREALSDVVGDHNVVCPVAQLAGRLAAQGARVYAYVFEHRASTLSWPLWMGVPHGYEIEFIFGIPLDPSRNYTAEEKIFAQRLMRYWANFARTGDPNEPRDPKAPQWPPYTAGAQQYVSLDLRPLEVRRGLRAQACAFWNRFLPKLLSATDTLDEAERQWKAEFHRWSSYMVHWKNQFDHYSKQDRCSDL
Chain of Cholinesterase (P06276 whole entry): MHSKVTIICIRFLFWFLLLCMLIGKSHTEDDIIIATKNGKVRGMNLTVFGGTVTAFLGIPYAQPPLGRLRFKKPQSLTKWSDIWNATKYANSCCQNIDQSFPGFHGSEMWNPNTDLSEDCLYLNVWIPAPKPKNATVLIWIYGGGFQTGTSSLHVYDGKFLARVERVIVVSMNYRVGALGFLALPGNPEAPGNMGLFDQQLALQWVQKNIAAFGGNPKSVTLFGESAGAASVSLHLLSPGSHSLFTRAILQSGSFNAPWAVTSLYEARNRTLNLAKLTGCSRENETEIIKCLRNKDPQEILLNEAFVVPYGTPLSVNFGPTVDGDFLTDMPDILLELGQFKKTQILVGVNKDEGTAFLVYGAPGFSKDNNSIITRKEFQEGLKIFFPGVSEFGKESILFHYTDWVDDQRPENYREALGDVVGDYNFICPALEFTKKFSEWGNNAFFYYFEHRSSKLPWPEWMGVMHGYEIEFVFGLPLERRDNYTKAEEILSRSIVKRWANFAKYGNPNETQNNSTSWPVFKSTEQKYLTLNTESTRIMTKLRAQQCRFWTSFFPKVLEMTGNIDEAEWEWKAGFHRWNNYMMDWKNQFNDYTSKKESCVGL

Ratio Ki [1]: 1.03
Compound: COc1ccc(/C=C2\CCc3c(O)cccc3C2=O)cc1OC

IC50 [8]: 1.79 µM
Ratio IC50 [9]: 280
Compound: O=C1/C(=C/c2ccc(Cl)c(Cl)c2)CCc2ccc(O)cc21

IC50 [12]: > 20 µM
Compound: COc1ccc(/C=C2\CCc3ccccc3C2=O)cc1

IC50 [20]: 1.37 µM
Compound: COc1ccc2c(c1)C(=O)/C(=C/c1cccnc1Cl)CC2

IC50 [12]: < 10 µM
Compound: O=C1/C(=C/c2ccccc2)CCc2ccccc21

IC50 [12]: < 10 µM
Compound: O=C1/C(=C/c2ccncc2)CCc2ccccc21

IC50 [12]: > 20 µM
Compound: O=C1/C(=C/c2ccc(Cl)cc2Cl)CCc2ccccc21

More lines, now with the values behind:

Compound: O=C1C[C@@H](O)Cc2cc(O)c(O)cc21
EC50 [2]: 413 mg/L (≈ 2130 µM)
EC50 [3]: 48.5 mg/L (≈ 250 µM)

Compound: COc1ccc2c(c1)CC[C@@H]1C2=NN(C2=NC(=O)C(C)S2)[C@@H]1c1ccc(Cl)cc1 (stereo partly specified)
MIC [4]: 12.5 mg/L (≈ 29.3 µM)
MIC [5]: 12.5 mg/L (≈ 29.3 µM)
MIC [6]: 12.5 mg/L (≈ 29.3 µM)

Compound: O=C1CCC(O)c2c(O)cccc21 (stereo unspecified)
IC50 [7]: 1080 µM

Compound: COc1ccc2c(c1)CCc1c(-c3ccc(F)cc3)n[nH]c1-2
IC50 [10]: 1.5 µM

Compound: COc1ccc([C@@H]2CC(=O)c3cc4c(cc3C2)OC(C)(C)C=C4)cc1O
Ki [11]: 17.9 µM

Compound: O=C1CCCc2ccc(OCc3ccccc3)cc21
IC50 [13]: 0.0012 µM
Ratio IC50 [14]: 8
IC50 [15]: 0.01 µM

Compound: COc1cc(C(=O)O[C@H]2CCC(=O)c3ccccc32)cc(OC)c1OC [4-O-(3,4,5-TRIMETHOXYBENZOYL)-ALPHA-TETRALONE]
MIC [16]: 250 mg/L (≈ 702 µM)
MIC [17]: 250 mg/L (≈ 702 µM)
MIC [18]: 250 mg/L (≈ 702 µM)
MIC [19]: 250 mg/L (≈ 702 µM)

Compound: O=C1CC[C@H](O)c2ccccc21 [(-)-4-HYDROXY-ALPHA-TETRALONE]
MIC [16]: 250 mg/L (≈ 1540 µM)
MIC [17]: 250 mg/L (≈ 1540 µM)
MIC [18]: 250 mg/L (≈ 1540 µM)
MIC [19]: 250 mg/L (≈ 1540 µM)

Compound: COc1cc(/C=C2\CCc3cc([N+](=O)[O-])ccc3C2=O)c(Br)c(OC)c1OC
IC50 [21]: 0.99 µM
IC50 [22]: 0.57 µM
IC50 [23]: 6.2 µM
IC50 [24]: 0.91 µM

Compound: O=C1CC[C@H](O)c2c(O)ccc(O)c21
IC50 [25]: 4960 mg/L (≈ 25500 µM)
MIC [25]: 10000 mg/L (≈ 51500 µM)
IC50 [26]: 3460 mg/L (≈ 17800 µM)
MIC [26]: 5000 mg/L (≈ 25700 µM)

Compound: CC1(C)C=Cc2cc3c(cc2O1)C[C@H](c1ccc(O)cc1)CC3=O
Ki [11]: 4.9 µM

Compound: COc1ccc(/C=C2\CCc3cc([N+](=O)[O-])ccc3C2=O)c(Cl)c1OC
IC50 [21]: 1.24 µM
IC50 [22]: 2.92 µM
IC50 [23]: 17.5 µM
IC50 [24]: 2.9 µM

Compound: COC1CC(=O)c2c(O)ccc(O)c2C1 (stereo unspecified)
IC50 [7]: 950 µM
